# Assay results published in US5015628A, “Anticariogenic phosphopeptides” (The University of Melbourne, priority 1986, dated 1991).
# Where a SMILES comes first, the peptide text is derived from it. [ ]: non-standard residue; d: D form. pS = N[C@@H](COP(=O)(O)O)C(=O)O
# Experiment: Intra-Oral Caries Test (Test 2)
# Type: in vivo
# Conditions: plaque exposed twice a day to the peptide T1 solution
# Protocol: The anticariogenicity of phosphopeptide T1 was determined using a modification of the intra-oral caries test of Koulourides and Ostrom (Caries Res. 10:442-482, 1976). Enamel slabs were inset in a removable intra-oral appliance to simulate an approximal area. This was done on both sides of the removable appliance (left and right). The appliance was worn to allow plaque accumulation in the simulated approximal areas. Eight times a day the appliance was removed and placed in a solution at 37° C. The solution was 2% w/v sucrose, 2% w/v glucose, 140 mM KCl, 20 mM NaCl at pH 7.0. Twice a day the right side enamel slabs received exposure to a solution containing 1.8% w/v calcium phosphate T1 in 140 mM KCl, 20 mM NaCl at pH 7.0, while the left side received only the salt solution. At the completion of the experiment the enamel slabs were removed, sectioned and subjected to microradiography and microhardness testing. […] The results were confirmed by microhardness analysis. Plaque was also taken from both sides of the appliance and analysed for calcium phosphate, serine phosphate and peptide T1 using a competitive, quantitative, enzyme-linked immunosorbent assay (ELISA) utilising monoclonal antipeptide T1 antibodies.
smiles,measurement,value
"CC[C@H](C)[C@H](NC(=O)[C@H](COP(=O)(O)O)NC(=O)[C@H](CCC(=O)O)NC(=O)[C@H](C)NC(=O)[C@H](CCC(=O)O)NC(=O)[C@H](CCSC)NC(=O)[C@@H](N)CCC(=O)O)C(=O)N[C@@H](COP(=O)(O)O)C(=O)N[C@@H](COP(=O)(O)O)C(=O)N[C@@H](COP(=O)(O)O)C(=O)N[C@@H](CCC(=O)O)C(=O)N[C@@H](CCC(=O)O)C(=O)N[C@H](C(=O)N[C@H](C(=O)N1CCC[C@H]1C(=O)N[C@@H](CC(N)=O)C(=O)N[C@@H](COP(=O)(O)O)C(=O)N[C@H](C(=O)N[C@@H](CCC(=O)O)C(=O)N[C@@H](CCC(N)=O)C(=O)N[C@@H](CCCCN)C(=O)O)C(C)C)C(C)C)[C@@H](C)CC [T1, Glu-Met-Glu-Ala-Glu-Pse-Ile-Pse-Pse-Pse-Glu-Glu-Ile-Val-Pro-Asn-Pse-Val-Glu-Gln-Lys] (H-EMEAE[pS]I[pS][pS][pS]EEIVPN[pS]VEQK-OH)",level of peptide in plaque (ELISA),at least 0.4 % w/wet wt of plaque
